This is an account of results in US7732429B2 (Trustees of Tufts College, priority 1994, dated 2010).

One assay deals with T1, efflux protein (Escherichia coli, UniProt P02980).
T1 sequence (P02980 1-401): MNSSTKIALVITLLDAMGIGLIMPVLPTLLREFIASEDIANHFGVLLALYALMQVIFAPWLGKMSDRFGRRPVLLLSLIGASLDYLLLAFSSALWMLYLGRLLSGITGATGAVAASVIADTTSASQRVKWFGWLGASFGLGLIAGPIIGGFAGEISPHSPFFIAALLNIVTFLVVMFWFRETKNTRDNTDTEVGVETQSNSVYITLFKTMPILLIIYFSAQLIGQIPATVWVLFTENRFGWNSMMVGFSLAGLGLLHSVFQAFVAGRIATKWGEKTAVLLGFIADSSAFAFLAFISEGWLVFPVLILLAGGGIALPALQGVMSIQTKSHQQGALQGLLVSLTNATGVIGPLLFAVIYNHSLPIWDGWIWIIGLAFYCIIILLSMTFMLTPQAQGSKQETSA
Put plainly: everted membrane vesicle assay, blocking activity of 13-S-derivatives. It counts as biochemical. The following applies: blocking activity against the efflux protein, everted membrane vesicle assay.

The subject of assay [1] is E. coli Class A Tc^r (DI-299). It counts as cell-based. The following applies: drug alone.
In assay [2] the test system is E. coli Tc^s (MI 308-226). The assay is described as follows: susceptibility testing MIC/MLC, drug alone. Conditions: Tc^s (MI 308-226), drug alone. The class given is cell-based.
Assay [3] deals with E. coli Class B Tc^r (DI-209). It counts as cell-based. The following applies: drug alone.
Assay [4] concerns E. faecalis Tc^r (L) ATCC9790r/Tell.). Put plainly: susceptibility testing MIC/MLC, drug alone. The class given is cell-based. Conditions: Tc^r (L) ATCC9790r/Tell.), drug alone.
Assay [5] relates to E. faecalis Tc^s (ATCC9790r). Put plainly: susceptibility testing MIC/MLC, drug alone. The class given is cell-based.

In turn, `CC(C)CSCC1c2cccc(O)c2C(=O)C2=C(O)C3(O)C(=O)C(C(N)=O)=C(O)C(N(C)C)C3C(O)C21` (stereo not shown) [Isobutyl] had a Ki at efflux protein of 188 nM.
The compound `CC(C)SCC1c2cccc(O)c2C(=O)C2=C(O)C3(O)C(=O)C(C(N)=O)=C(O)C(N(C)C)C3C(O)C21` (stereo not shown) [Isopropyl] had a Ki at efflux protein of 771 nM. The MIC in assay [1] was determined as 45 ± 6 µg; in assay [2], 22 ± 2 µg; in assay [3], 35 ± 6 µg; in assay [4], 3 ± 1 µg; in assay [5] it was 3 ± 1 µg. Moreover, the MLC in assay [1] (kills 99.9%) was 60 µg; in assay [2] (kills 99.9%) it was 50 µg; in assay [3] (kills 99.9%), 46 ± 16 µg.
As to `CN(C)C1C(O)=C(C(N)=O)C(=O)C2(O)C(O)=C3C(=O)c4c(O)cccc4C(CSCc4ccc(Cl)cc4)C3C(O)C12` (stereo not shown) [p-Cl-Benzyl], the Ki at efflux protein came to 1.5 µg/mL.
As to `Cc1ccc(CSCC2c3cccc(O)c3C(=O)C3=C(O)C4(O)C(=O)C(C(N)=O)=C(O)C(N(C)C)C4C(O)C32)cc1` (stereo not shown) [p-Me-Benzyl], on efflux protein, the Ki stood at 1.2 µg/mL.
On the same count and under the same terms, with `CN(C)C1C(O)=C(C(N)=O)C(=O)C2(O)C(O)=C3C(=O)c4c(O)cccc4C(CSC(C)(C)C)C3C(O)C12` (stereo not shown) [t-Butyl] the figure was 0.3 µg/mL.
